Test results taken from patent publication US20200179339A1, “PHARMACEUTICALS COMPOSITIONS FOR TREATMENT OF ATOPIC DERMATITIS” (CADILA HEALTHCARE LIMITED, priority 2018, published 2020).

What was measured:
[1] = system: oxazolone induced atopic dermatitis in mice; test: Ear thickness in oxazolone induced atopic dermatitis in mice; format: in vivo, female balb/c mice; parameters: Change in ear thickness: unit not given beside the values; details: for percentage inhibition in ear thickness (atopic dermatitis): topical; for % change: topical day 5 and day 6, ear thickness vs vehicle control; for Change in ear thickness: topical on left ear day 5 and day 6
Procedure: (§1) The 7-8 week old female balb/c mice used for the study were divided into four groups of six mice each. Animal shaved on their abdomen region. On day-1, Oxazolone (Sigma chemical Co. USA) was dissolved in ethanol and applied at a dose volume is 500 ug/100 μl/mouse on shaved abdomen side as sensitized dose. On day 5, basal ear thickness was measured and oxazolone (dissolved in acetone, (100 μg/20 μl)) applied on left side ear at a dose volume of 20 μl/mouse on day 5 and day 6. Post Two hours of oxazolone application, treatment drugs applied on left ear respectively. Treatment was applied on day 5 and day 6 and ear thickness was measured on day 5 (basal), day 6 and day 7.
All animals were assessed for the ear thickness measurement. Animals were sacrificed on day 7, Ear weight were taken and ear were collected for histology and gene expression.
as §1, with “into five” for “into four”, “20 μ/mouse” for “20 μl/mouse”
All animals were assessed for the ear thickness measurement. Animals were sacrificed on day 7, Ear weight were taken.

[2] = system: cyclo-oxygenase enzymes (COX); details: background statement; cited from earlier work
[3] = Study-1, text, Apremilast 3%, Diclofenac 1.5%
[4] = Study-1, Apremilast 3%, Diclofenac 1.5%
[5] = Study-1, Apremilast 3%, Diclofenac 1.5%, vehicle control 0.3
[6] = Study-2, text, Apremilast 1%, Diclofenac 1%
[7] = Study-2, Apremilast 1%, Diclofenac 1%
[8] = Study-2, Apremilast 1%, Diclofenac 1%, vehicle control 0.44

SMILES | percentage inhibition in ear thickness (atopic dermatitis) [1, 3] [%] | % change [1, 4] [%] | Change in ear thickness [1, 5] | percentage inhibition in ear thickness (atopic dermatitis) [1, 6] [%] | % change [1, 7] [%] | Change in ear thickness [1, 8] | approximate relative COX-1/COX-2 specificity ratio [2]
CCOc1cc([C@@H](CS(C)(=O)=O)N2C(=O)c3cccc(NC(C)=O)c3C2=O)ccc1OC [Apremilast, (+)-2-[1-(3-ethoxy-4-methoxyphenyl)-2-methanesulfonylethyl]-4-acetylaminoisoindolin-1,3-dione] | 38 | 38.6 | 0.18 | 45 | 45.1 | 0.24 | –
O=C([O-])Cc1ccccc1Nc1c(Cl)cccc1Cl.[Na+] [Diclofenac, sodium salt of [2-(2,6-Dichloroanilino)phenyl]acetic acid] | 64 | 63.8 | 0.11 | 37 | 36.8 | 0.28 | one
